Read-outs that look alike come from different tables or passages of the source.
Experiments:
[1] = system: falciparum malaria parasite FCR-3 strain
Excerpt: (§1) Giemsa-stained smears were observed by Nikon Eclipse 80i microscope (Nikon), photographed by Nikon DXM 1200F camera (Nikon) and uploaded on a personal computer by digital photograph manager software (ACT-1; Nikon). In order to measure falciparum malaria parasite size, 50 falciparum malaria parasites were randomly selected, and areas containing these falciparum malaria parasites were manually delineated with lines on a screen. Area, perimeter, and maximum diameter of the falciparum malaria parasites cells was calculated by WinROOF software package Ver.5.8.1 (Mitani, Japan).
In order to quantitatively examine the effect of 2-APB on intraerythrocytic falciparum malaria parasite development, the area, perimeter and maximum diameter (hereinafter referred to collectively as “three parameters”) of falciparum malaria parasite cells were analyzed at 15 hours, 30 hours, and 40 hours from the start of the synchronized culturing. At 40 hours from the start of the synchronized culturing, only schizonts were analyzed.
In order to investigate an effect of 2-APB in the ring form stage, 100 μM 2-APB was added to falciparum malaria parasites that were being synchronized-cultured, and sizes of the falciparum malaria parasites were measured after 10 hours of culturing and after 20 hours of culturing. In some assays (“removed at 10 h” in (f) of FIG. 6), 100 μM 2-APB was added at start of the culturing and removed after 10 hours of culturing, and then sizes of falciparum malaria parasites were measured after 20 hours of culturing (see (f) of FIG. 6). […] Fifty falciparum malaria parasites were measured in each experimental group. P values compared with the controls (in the presence of DMSO) are given in each panel (two-tailed unpaired t test with Welch's correction).

[2] = system: falciparum malaria parasites (P. falciparum); assay: Intracellular fluorescence Ca2+ imaging of P. falciparum in intraerythrocytic stage; assay type: cell-based
Description: Next, 1 ml of the culture of the erythrocytes that had been thus diluted was collected by centrifugation (at 1,000 g for five minutes at room temperature), then resuspended in 350 μL BSA(−) culture medium constituted by the same constituents as the BSA(−) culture medium mentioned above (hereinafter referred to as “erythrocyte resuspension (1)”).
Erythrocytes were then washed once with 10 mL BSA(−) culture medium (1000 g for 5 minutes at room temperature) and resuspended in 600 μL BSA(+) culture medium (the BSA(−) culture medium supplemented with 0.5 weight % Albumax 1 and 25 μg/mL gentamicin (Sigma)) (hereinafter referred to as “erythrocyte resuspension (2)”). Next, 100 μL of the erythrocyte resuspension (2) was inoculated in a 35 mm glass-bottomed dish (MatTek Corp.) coated with 0.1 mg/ml poly-L-lysine. After 30 minutes of incubation in an O2/CO2 incubator, suspended erythrocytes were gently washed with BSA(+) culture medium before collecting.
The glass-bottomed dish was then placed in a culture chamber in which an O2 level, a CO2 level, temperature, and humidity were maintained under conditions (O2 level: 5%, CO2 level, 5%, temperature: 37° C.) used for conventional in vitro culturing of malaria parasites.
The acquisition of the transparent images and acquisition of light emissions were carried out by the true spectral detection method developed by Leica Microsystems. The imaging was carried out at intervals of every 5 to 15 seconds for duration of 300 to 600 seconds. A fluorescence intensity of fluo4-AM was calculated by subtraction of background fluorescence (F) and normalized to minimum fluorescence during the imaging period (Fmin).

malaria parasites = conditions: cited from earlier work
[3] = system: falciparum malaria parasites
Description: Specimens to be subjected to the electron microscopy were fixed for approximately 2 hours in 2.5% (V/V) glutaraldehyde buffered with 0.1 M phosphate buffer (pH 7.4, at 4° C.). The specimens were then post-fixed in 1% (w/V) osmium tetroxide for 1 hour.

[4] = system: falciparum malaria parasites; conditions: cultured 30 hours in presence of 2-APB
Description: ER-Tracker Red (Invitrogen). […] ER-Tracker Red was then added to the erythrocyte suspension so as to be 0.5 μM in final concentration, and the mixture was shaken at 200 rpm for 30 minutes at 37° C.

[5] = system: chloroquine-resistant strain K1 of falciparum malaria parasites; conditions: 100 μM 2-APB; 24 hours
Excerpt: as §1
(§2) An effect of 2-APB on intraerythrocytic development of a chloroquine-resistant strain K1 of falciparum malaria parasites (P. falciparum) was examined by synchronized culturing malaria parasites in ring forms with initial parasitaemia of approximately 2%. The culturing was terminated at 24 hours, 48 hours, and 72 hours from the start of the synchronized culturing, and thin smears of erythrocytes were prepared for falciparum malaria parasite counting. Culture medium with 100 μM DMSO or 100 μM 2-APB was replaced at 24 hours and 48 hours from the start of the synchronized culturing. […] Parasitaemia of ring forms (Rf), trophozoites (T), early schizonts (ES) and late schizonts (LS) is shown as mean±S.D. of 3 wells. Stages with parasitaemia of less than 0.1% are not shown.

[6] = system: chloroquine-resistant strain K1 of falciparum malaria parasites (P. falciparum)
Description: as §2

[7] = system: falciparum malaria parasite FCR-3 strain; assay: Assay for examining inhibition of development of P. falciparum (synchronized culture, Giemsa smear parasitaemia count); assay type: cell-based
Description: An FCR-3 strain of falciparum malaria parasite (P. falciparum) (reference document: Hatabu T, Takada T, Taguchi N, Suzuki M, Sato K, Kano S. (2005) Antimicrob Agents Chemother. 2005 February; 49(2):493-6.) was cultured in RPMI culture medium (Invitrogen/GIBCO) in accordance with the method of Trager and Jensen (reference document: Trager, W. 86 Jensen, J. B. (1976) Science 193, 673-675.). The FCR-3 strain is a strain which takes an approximately 40 hours to undergo one development/proliferation cycle of invasion of merozoites into erythrocytes, formation of ring forms, formation of trophozoites, formation of schizonts, release of mature merozoites, and invasion of the mature merozoites into erythrocytes. To the RPMI culture medium, 0.5 weight % AlubumaxI (Invitrogen), 25 mM HEPES, 24 mM sodium hydrogen carbonate, 0.5 g/L L-glutamine, 50 mg/L hypoxanthine, 25 μg/ml gentamicin (Sigma), and human erythrocytes with 5% hematocrit (provided by a healthy volunteer) were added. Further, synchronized culturing was carried out with the use of 5 weight % d-sorbitol (reference document: Lambros, C. 86 Vanderberg, J. P. (1979) J. Parasitol. 65, 418-420.) to synchronize developments of P. falciparum.
Effects of 2-APB (2-aminoethyl diphenylborinate) and LZ (luzindole) on intraerythrocytic falciparum malaria parasite development were examined with the use of a culture of falciparum malaria parasites in a ring form stage with initial parasitaemia of approximately 1%.
First, 500 μl of the culture was injected into each well of a tissue culture plate (24-well flat-bottom plate, Corning). 2-APB and LZ were dissolved in dimethyl sulfoxide (DMSO, HYBRI-MAX (Registered Trademark), Sigma) to be 10 mM and 100 mM in concentration, respectively. In this way, stock solutions of these compounds were prepared. The stock solutions were diluted with the RPMI culture medium, and were added to each well of the tissue culture plate in an amount to be a predetermined final concentration in the well. Further, DMSO was diluted with the PPMI culture medium and was added to each well of a tissue culture plate in an amount to be a predetermined final concentration in the well, and was used as a control. Culturing was carried out in each well for a predetermined period of time.
After elapse of the predetermined period of time, a drop of the erythrocytes-containing culture in each well of the tissue culture plate was smeared on a glass slide and giemsa-stained. The number of erythrocytes infected with falciparum malaria parasites out of 2000 erythrocytes was counted so as to determine parasitaemia.

NCCOB(c1ccccc1)c1ccccc1 [2-APB, 2-aminoethyl diphenylborinate]
Area, perimeter and maximum diameter of parasite cells ([1]; 100 μM 2-APB present for 10 hours and 20 hours vs DMSO): significantly smaller | Area, perimeter and maximum diameter of parasite cells ([1]; 100 μM 2-APB removed at 10 hours, measured at 20 hours vs DMSO): no statistically significant difference | Area, perimeter and maximum diameter of parasite cells ([1]; 100 μM 2-APB vs DMSO, 15, 30 and 40 hours): significant decreases | Spontaneous Ca2+ oscillations ([2]; 100 μM 2-APB, early ring form and trophozoite stages): almost completely blocked | Ca2+ fluctuations ([2]; 100 μM 2-APB, late ring form, schizont and merozoite stages): no notable effect | Amplitude of periodic Ca2+ fluctuations (mean max minus mean min F/Fmin) ([2]; 2-APB, late ring form, schizont, merozoite stages, quantitative analysis): statistically significant effect of 2-APB was observed only in the merozoite stage | Increase in concentration of calcium ion in cytoplasm brought about by melatonin (malaria parasites; 2-APB administered to malaria parasites): suppressed | Promotion of calcium discharge by 2-APB itself (malaria parasites; malaria parasites): no effect | Ultrafine structure (electron micrographs) ([3]; 100 μM 2-APB, 30 hours): highly dense chromatin masses in the nucleus and highly dense degeneration | Nuclear envelope and endoplasmic reticulum in electron micrographs ([3]; cultured in presence of 2-APB): dilated nuclear envelope and endoplasmic reticulum | Endoplasmic reticulum tracker signals [4]: became broad and extended to the cytosol | Inhibitory effect by area, perimeter and maximum diameter of parasite cells [5]: confirmed | Parasitaemia of trophozoites ([6]; 100 μM 2-APB, 24 hours): tendency towards decreasing parasitaemia | Intraerythrocytic malaria parasite development ([6]; 2-APB vs DMSO, 48 hours): delayed | Number of erythrocytes infected with falciparum malaria parasite ([6]; 2-APB vs DMSO, 72 hours): much lesser | Effect of 2-APB on the K-1 strain ([6]; 24 hour from start of assay): relatively weak | Intraerythrocytic development of falciparum malaria parasites ([7]; 100 μM 2-APB vs DMSO controls, 20, 30, 40 hours of synchronized culturing): clearly delayed | Ring form parasitaemia at 45 hours ([7]; 2-APB added at late schizont stage (28 hours)): significantly decreased | Parasitaemia of ring forms at 40 hours ([7]; 2-APB added between trophozoite and early schizont stages (21 hours), compared with the removal cases): greater effect | Number of merozoites formed in each schizont ([7]; 2-APB vs DMSO, 40 hours): significantly smaller | Erythrocyte parasitaemia ([7]; 2-APB, medium replaced at 40 h, 70 hours from start of synchronized culturing): substantially zero | Developmental stage reached ([7]; 2-APB, 20 hours from start of synchronized culturing): remained at the trophozoite stage | Parasite morphology ([7]; cultured in presence of 2-APB, up to 40 hours): abnormal morphology | Parasite development in 2-APB-pretreated erythrocytes ([7]; erythrocytes treated with 2-APB only in advance, 20 and 40 hours): could develop normally

C/C=C/[C@H]1O[C@@](O)([C@@H](C)[C@H](O)[C@H](C)[C@H]2OC(=O)/C(OC)=C/C(C)=C/[C@@H](C)[C@@H](O)[C@@H](CC)[C@@H](O)[C@H](C)C/C(C)=C/C=C/[C@@H]2OC)C[C@@H](O[C@H]2C[C@@H](O)[C@H](OC(N)=O)[C@@H](C)O2)[C@@H]1C [CMA, concanamycin A]
Ca2+ oscillations ([2]; pre-treatment with 100 nM CMA, early ring forms and trophozoites): no effect

CC(=O)NCCc1c(Cc2ccccc2)[nH]c2ccccc12 [LZ, luzindole]
Intraerythrocytic falciparum malaria parasite development ([7]; 250 μM LZ, 20, 40, 70 hours): clearly inhibited | Developmental stage reached ([7]; 250 μM LZ, 20 hours): remained in a transition stage from ring forms to early trophozoites | Developmental stage reached ([7]; 250 μM LZ, 40 hours): most of the falciparum malaria parasites remained in the transition stage from ring forms to early trophozoites | Developmental stage reached ([7]; 250 μM LZ, 70 hours): remained in the transition stage from ring forms to early trophozoites even at 70 hours

C/C=C(/C)C(=O)O[C@H]1C(C)=C2[C@H]([C@@H]1OC(=O)CCCCCCC)[C@@](C)(OC(C)=O)C[C@H](OC(=O)CCC)[C@@]1(O)[C@H]2OC(=O)[C@@]1(C)O [Tg, thapsigargin]
Ca2+ oscillations ([2]; pre-treatment with 2 μM Tg for 30 minutes, early ring forms and trophozoites): blocked

COc1ccc2c(c1)CC[C@@H]1[C@@H]2CC[C@]2(C)[C@@H](NCCCCCCN3C(=O)C=CC3=O)CC[C@@H]12 [U73122]
Ca2+ oscillations ([2]; 5 minutes pre-treatment with 10 μM U73122, early ring form and trophozoite stages): almost completely blocked

— patent publication US20130296230A1, “METHOD FOR TREATING MALARIA, METHOD FOR KILLING MALARIA PARASITE, AND USE OF THE METHODS” (RIKEN, priority 2010, published 2013)
